Calls of active or inactive are those of the source.
Tests used:
[1] = target: T1, Carboxy-terminal domain RNA polymerase II polypeptide A small phosphatase 1 (Homo sapiens, UniProt Q9GZU7); assay: inhibitors of CTDSP1, concentration-response testing, biochemical assay, absorbance-based, actives from ultra-high-throughput screening (AID 540297); format: functional
T1 sequence (Q9GZU7 whole entry): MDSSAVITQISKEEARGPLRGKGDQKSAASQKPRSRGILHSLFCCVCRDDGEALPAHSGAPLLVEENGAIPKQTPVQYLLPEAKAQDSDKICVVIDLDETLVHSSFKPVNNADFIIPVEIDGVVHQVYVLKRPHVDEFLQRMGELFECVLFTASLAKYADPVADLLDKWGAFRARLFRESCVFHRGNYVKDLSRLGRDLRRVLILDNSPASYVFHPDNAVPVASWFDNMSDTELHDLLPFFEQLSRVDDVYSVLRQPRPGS

[2] = target: T2, Long-chain-fatty-acid--AMP ligase FadD28 (Mycobacterium tuberculosis, UniProt P9WQ59); assay: Fluorescence polarization aasay to screen for inhibitors that compete for the binding of FadD28 to a bisubstrate Measured in Biochemical System Using Plate Reader - 2147-01_Inhibitor_Dose_CherryPick_Activity.; format: functional, Mycobacterium tuberculosis H37Rv
T2 sequence (P9WQ59 whole entry): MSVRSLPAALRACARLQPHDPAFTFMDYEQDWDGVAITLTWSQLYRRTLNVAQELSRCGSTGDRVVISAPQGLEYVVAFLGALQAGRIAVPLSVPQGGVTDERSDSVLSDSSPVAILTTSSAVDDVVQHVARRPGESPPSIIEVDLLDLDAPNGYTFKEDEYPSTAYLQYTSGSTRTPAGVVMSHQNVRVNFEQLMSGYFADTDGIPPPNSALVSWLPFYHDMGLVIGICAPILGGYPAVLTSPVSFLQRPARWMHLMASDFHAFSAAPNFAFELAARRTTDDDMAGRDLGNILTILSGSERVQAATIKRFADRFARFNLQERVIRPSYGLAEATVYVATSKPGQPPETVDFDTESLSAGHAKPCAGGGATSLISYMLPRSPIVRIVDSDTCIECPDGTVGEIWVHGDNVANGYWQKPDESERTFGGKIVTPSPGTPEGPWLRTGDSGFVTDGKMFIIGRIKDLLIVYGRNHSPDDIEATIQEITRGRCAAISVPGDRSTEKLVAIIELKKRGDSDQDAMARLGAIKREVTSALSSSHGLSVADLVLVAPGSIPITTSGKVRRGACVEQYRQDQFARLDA

[3] = NIH-3T3 fibroblast cytotoxicity, dose response, cytotoxicity control, cell-based, fluorescence, Alamar Blue, secondary assay (AID 2327); format: functional;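 also: NIH-3T3 mouse fibroblasts cultured with fluconazole at 8 µg/mL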
Cytochrome P450 1A2 = target: T3, Cytochrome P450 1A2 (Homo sapiens, UniProt P05177);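 also: PubChem cytochrome P450 panel assay, CYP1A2 panel member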
T3 sequence (P05177 whole entry): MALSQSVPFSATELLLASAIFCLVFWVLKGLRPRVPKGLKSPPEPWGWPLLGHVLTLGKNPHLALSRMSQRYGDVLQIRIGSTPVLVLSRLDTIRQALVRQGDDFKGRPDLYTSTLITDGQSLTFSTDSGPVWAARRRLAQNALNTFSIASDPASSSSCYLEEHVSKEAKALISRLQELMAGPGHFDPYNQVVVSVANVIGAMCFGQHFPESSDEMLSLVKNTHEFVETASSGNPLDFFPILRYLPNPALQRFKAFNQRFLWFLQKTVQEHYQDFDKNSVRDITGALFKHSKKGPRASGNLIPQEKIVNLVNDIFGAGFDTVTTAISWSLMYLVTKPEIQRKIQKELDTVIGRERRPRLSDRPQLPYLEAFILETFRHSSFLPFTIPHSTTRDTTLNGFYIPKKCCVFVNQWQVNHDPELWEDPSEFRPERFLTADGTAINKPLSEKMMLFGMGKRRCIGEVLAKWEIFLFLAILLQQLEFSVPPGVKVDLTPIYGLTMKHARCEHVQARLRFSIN

Cytochrome P450 2C9 = Cytochrome P450 2C9 (Homo sapiens, UniProt P11712)
[4] = target: T4, Corticotropin-releasing factor receptor 2/Corticotropin-releasing factor-binding protein (Homo sapiens, UniProt P24387+Q13324); assay: activators of CRF receptor 2 with binding protein – uHTS hits, confirmation (AID 602473); format: functional; details: read-out: EC50_Mean
T4 sequence (Q13324 whole entry): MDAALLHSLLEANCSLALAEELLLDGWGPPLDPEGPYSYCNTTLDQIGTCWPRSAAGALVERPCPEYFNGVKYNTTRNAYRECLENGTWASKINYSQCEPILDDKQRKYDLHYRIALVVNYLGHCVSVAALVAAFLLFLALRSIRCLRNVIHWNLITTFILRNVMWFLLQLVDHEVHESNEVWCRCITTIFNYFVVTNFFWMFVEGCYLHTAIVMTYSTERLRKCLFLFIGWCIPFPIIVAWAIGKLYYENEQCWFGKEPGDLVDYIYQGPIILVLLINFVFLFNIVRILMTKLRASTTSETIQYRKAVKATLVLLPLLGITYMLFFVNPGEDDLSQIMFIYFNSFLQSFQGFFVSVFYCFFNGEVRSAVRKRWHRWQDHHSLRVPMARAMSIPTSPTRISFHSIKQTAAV
T4 sequence (P24387 whole entry): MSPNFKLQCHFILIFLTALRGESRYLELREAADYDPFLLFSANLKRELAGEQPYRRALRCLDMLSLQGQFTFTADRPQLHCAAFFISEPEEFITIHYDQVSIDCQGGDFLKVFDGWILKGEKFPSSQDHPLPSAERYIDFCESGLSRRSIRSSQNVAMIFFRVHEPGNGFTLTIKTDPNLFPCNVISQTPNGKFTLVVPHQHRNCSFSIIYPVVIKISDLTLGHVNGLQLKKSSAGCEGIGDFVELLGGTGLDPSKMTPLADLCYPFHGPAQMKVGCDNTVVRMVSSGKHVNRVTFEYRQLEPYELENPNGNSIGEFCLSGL

Kallikrein-7 = Kallikrein-7 (Homo sapiens, UniProt P49862); assay: Fluorescence Intensity-based biochemical primary high throughput dose response assay to identify activators of kallikrein-7 (K7) zymogen.
Aminopeptidase N = target: T5, Aminopeptidase N (Plasmodium falciparum FcB1/Columbia, UniProt O96935); assay: P. falciparum M1AAP inhibitors, biochemical, fluorogenic H-Leu-NHMec substrate, 1536-well (AID 1445); design: species or system Plasmodium falciparum 3D7, 3D7
T5 sequence (O96935 whole entry): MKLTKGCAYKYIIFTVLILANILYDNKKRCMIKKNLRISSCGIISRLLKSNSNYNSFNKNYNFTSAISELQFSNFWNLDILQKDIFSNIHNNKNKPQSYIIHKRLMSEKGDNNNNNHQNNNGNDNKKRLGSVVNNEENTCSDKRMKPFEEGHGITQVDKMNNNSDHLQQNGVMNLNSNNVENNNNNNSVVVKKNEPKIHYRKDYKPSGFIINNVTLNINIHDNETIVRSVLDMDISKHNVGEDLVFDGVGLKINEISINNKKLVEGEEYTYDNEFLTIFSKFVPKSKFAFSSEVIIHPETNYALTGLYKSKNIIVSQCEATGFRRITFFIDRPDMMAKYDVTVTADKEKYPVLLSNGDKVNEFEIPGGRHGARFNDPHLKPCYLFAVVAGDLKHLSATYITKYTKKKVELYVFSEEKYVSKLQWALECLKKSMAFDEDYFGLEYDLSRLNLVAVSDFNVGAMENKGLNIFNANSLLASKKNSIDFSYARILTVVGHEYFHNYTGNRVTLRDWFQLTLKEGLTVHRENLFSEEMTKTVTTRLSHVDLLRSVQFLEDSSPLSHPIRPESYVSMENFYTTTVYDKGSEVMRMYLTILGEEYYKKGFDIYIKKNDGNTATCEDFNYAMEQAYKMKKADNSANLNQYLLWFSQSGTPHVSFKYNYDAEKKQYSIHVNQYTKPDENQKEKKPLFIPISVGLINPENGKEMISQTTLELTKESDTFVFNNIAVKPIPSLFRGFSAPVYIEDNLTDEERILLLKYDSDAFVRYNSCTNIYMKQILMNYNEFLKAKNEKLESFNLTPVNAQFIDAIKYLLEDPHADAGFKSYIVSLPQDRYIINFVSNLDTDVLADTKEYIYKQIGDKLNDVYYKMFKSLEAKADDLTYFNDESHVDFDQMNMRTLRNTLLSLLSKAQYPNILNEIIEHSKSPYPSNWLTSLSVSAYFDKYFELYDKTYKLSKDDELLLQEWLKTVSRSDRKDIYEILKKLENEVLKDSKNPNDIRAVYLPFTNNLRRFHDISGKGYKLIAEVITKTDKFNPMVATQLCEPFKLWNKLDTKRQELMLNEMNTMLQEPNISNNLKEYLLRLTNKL

Streptokinase A = target: T6, Streptokinase A (Streptococcus pyogenes serotype M1, UniProt P10520); assay: S. pyogenes streptokinase expression inhibitors, potency, dose response, plasminogen activation absorbance, OD405 (AID 1914); format: functional, Streptococcus pyogenes M1 GAS;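 also: secreted streptokinase activity via plasminogen activation per viability signal from cell pellet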
T6 sequence (P10520 whole entry): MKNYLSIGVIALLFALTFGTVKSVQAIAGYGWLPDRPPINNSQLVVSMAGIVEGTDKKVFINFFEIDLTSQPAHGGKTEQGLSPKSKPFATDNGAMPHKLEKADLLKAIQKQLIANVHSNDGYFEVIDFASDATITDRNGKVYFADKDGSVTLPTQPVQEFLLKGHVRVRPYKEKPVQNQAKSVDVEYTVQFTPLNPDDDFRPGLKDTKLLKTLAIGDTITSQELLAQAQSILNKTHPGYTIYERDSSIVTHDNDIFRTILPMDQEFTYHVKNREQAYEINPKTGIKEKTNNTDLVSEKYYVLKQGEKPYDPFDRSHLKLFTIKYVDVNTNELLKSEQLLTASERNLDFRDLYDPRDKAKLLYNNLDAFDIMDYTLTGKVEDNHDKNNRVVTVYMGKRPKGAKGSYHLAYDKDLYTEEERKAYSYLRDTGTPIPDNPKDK

Leucine aminopeptidase = target: T7, Leucine aminopeptidase (Plasmodium falciparum 3D7, UniProt Q8IL11); assay: P. falciparum M17LAP inhibitors, primary screen, biochemical, fluorogenic H-Leu-NHMec substrate, 1536-well (AID 1619); format: functional
T7 sequence (Q8IL11 whole entry): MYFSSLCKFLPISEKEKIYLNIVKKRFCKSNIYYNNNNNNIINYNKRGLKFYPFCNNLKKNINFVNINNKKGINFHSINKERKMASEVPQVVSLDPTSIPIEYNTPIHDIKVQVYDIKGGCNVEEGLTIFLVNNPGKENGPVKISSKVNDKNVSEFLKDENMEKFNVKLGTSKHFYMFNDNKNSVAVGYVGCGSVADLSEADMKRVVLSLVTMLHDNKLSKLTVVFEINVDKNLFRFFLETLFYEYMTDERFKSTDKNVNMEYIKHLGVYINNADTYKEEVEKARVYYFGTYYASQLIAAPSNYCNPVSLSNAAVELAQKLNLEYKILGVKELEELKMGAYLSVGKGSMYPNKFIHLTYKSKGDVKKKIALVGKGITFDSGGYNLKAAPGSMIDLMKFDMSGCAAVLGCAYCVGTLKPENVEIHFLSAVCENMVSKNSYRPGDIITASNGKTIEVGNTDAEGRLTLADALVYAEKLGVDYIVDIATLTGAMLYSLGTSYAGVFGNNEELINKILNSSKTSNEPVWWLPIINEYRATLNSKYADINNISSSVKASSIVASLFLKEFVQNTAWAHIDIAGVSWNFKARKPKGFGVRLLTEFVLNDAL

[5] = tested on: Streptococcus sp. 'group A'; assay: growth inhibition of control SK(-) GAS strain, dose response, counter-screen for streptokinase expression inhibitor project, luminescence, kanamycin, BacTiterGlo, confirmation (AID 1900); format: functional, organism-based
Streptococcus = assay: Group A Streptococcus viability loss, dose response, counter-screen for streptokinase expression inhibitor project, luminescence, BacTiterGlo (AID 1915); format: functional, organism-based;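 also: potency for reduction of bacterial viability or growth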
[6] = target: T8, Sentrin-specific protease 8 (Homo sapiens, UniProt Q96LD8); format: functional
T8 sequence (Q96LD8 whole entry): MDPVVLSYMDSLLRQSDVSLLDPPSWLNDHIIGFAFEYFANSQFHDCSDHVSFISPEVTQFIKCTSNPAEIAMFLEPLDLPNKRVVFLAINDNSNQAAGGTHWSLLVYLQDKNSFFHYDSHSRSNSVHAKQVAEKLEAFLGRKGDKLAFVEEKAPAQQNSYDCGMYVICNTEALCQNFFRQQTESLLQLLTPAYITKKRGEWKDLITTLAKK

[7] = Luminescence Cell-Based Dose Retest to Confirm Inhibitors of Cancer Stem Cells. [Related pubchem assays (depositor defined):AID2717, AID2721]; format: functional, Homo sapiens; details: Homo sapiens

Sequence of Cytochrome P450 2C9 (P11712 whole entry): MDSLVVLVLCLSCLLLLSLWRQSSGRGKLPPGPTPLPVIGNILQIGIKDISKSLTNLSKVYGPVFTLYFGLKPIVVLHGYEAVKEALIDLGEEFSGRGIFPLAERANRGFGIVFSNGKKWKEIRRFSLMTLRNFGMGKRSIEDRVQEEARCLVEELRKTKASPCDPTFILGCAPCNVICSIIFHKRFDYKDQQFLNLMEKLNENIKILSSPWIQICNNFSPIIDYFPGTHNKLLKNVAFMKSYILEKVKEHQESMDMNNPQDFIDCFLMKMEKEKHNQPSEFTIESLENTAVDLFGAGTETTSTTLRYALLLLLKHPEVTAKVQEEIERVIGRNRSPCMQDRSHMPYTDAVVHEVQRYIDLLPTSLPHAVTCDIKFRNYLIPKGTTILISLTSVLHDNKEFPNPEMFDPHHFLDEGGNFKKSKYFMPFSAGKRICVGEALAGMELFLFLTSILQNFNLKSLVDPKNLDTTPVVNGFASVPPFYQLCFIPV
Sequence of Kallikrein-7 (P49862 whole entry): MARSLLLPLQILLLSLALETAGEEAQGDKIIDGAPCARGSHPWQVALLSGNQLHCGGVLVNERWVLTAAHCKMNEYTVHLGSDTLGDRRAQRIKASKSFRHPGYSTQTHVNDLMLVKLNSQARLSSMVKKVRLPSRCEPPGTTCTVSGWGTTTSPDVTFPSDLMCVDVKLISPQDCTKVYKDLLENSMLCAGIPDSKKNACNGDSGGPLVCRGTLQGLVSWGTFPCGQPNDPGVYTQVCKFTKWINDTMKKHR

SMILES	IC50 [1]	AC50 [2]	further results
C=C(C)C(=O)N1CC2(CC(c3cccc(NC(=O)/C=C\C=C/C)c3)=NO2)C[C@H]1C(N)=O (stereo not given in full)	9.08 µM (active)		
CC(C)(C)NS(=O)(=O)c1ccc(NC(=O)CS(=O)(=O)Cc2ccccc2)cc1		> 100 µM (inactive)	
CC(C)=C1C(=O)NN(c2ccc(F)c(Cl)c2)C1=O		> 100 µM (inactive)	EC50 [3]: > 160 µM (inactive); AC50 (Cytochrome P450 1A2): 31.6 µM (inconclusive); AC50 (Cytochrome P450 2C9): 20 µM (inconclusive)
O=C(O)c1cc(Cl)ccc1-c1ccc(/C=C/c2cc(C(F)(F)F)nc(O)n2)o1		> 100 µM (inactive)	EC50 [4]: 6.29 µM (active)
NS(=O)(=O)c1ccc(NC(=O)C2Cc3ccccc3CN2C(=O)c2ccco2)cc1 (stereo not given)	6.06 µM (active)		
O=C1N=C(Nc2cccnc2)S/C1=C/c1ccc(F)cc1	18.4 µM (active)		
O=C(NC1CC1)C1CCN(S(=O)(=O)c2cc([N+](=O)[O-])ccc2Cl)CC1	2.49 µM (active)		
O=C(NNS(=O)(=O)c1ccc(F)cc1)c1cc(Cl)ccc1O		> 100 µM (inactive)	
COCCn1c(=S)[nH]c2sc3c(c2c1=O)CCC(C)C3 (stereo not given)		53.8 µM (active)	
Cc1cc(C=O)c(C)n1-c1cccc(C(=O)O)c1	6.32 µM (active)		
CC(C)OCCOc1ccc2oc(-c3ccco3)cc(=O)c2c1	21.7 µM (active)		EC50 (Kallikrein-7): > 7.72 µM (active)
CCOC(=O)CC1(C)OCC(C[N+]2(C)CCCCC2)O1 (stereo not given)	5.57 µM (active)		
CC(=O)NS(=O)(=O)c1ccc(/N=c2\ssc3c2-c2ccc(C)cc2NC3(C)C)cc1		> 100 µM (inactive)	IC50 (Aminopeptidase N): 89.3 µM (active); EC50 (Streptokinase A): > 150 µM (not active); IC50 (Leucine aminopeptidase): 2.6 µM (active); EC50 [5]: 2.31 µM (active); EC50 (Streptococcus): 12.1 µM (active)
Cc1nc2ccccc2n1/N=C/c1ccc([N+](=O)[O-])o1			IC50 [6]: 38.4 µM (active); AC50 [7]: 10.9 µM (active)

Source: ChEMBL document CHEMBL1201862, “PubChem BioAssay data set” (2004)
